Reference: patent US7915262B2, “Combination preparations comprising SLV308 and a dopamine agonist” (Solvay Pharmaceuticals B.V., priority 2006, dated 2011)
Structures can show the parent of a compound that is named as a salt.

Legend:
[1] = prodrug; WO 2007/023141; cited from earlier work
[2] = molecular target: T1, dopamine D2 receptor (Rattus norvegicus, UniProt P61169); details: against inhibitory effect of quinpirole on K+-stimulated [3H]dopamine release, rat striatal slices; cited from earlier work
T1 construct: from rat striatal slices; from tissue; host or cells: rat striatal slices
T1 sequence (P61169 whole entry): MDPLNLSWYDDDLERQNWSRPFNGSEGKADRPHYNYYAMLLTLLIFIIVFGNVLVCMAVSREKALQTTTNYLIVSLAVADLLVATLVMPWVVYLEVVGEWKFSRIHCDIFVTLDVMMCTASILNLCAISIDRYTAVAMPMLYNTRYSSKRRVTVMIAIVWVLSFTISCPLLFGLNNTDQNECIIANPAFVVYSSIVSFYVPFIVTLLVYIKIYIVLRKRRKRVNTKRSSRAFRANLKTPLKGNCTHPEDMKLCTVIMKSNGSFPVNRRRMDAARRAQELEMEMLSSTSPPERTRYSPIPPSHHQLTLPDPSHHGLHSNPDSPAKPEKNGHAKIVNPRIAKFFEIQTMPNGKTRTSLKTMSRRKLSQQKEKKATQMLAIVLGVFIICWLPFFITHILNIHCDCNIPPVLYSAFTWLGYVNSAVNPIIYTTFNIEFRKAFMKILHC

[3] = molecular target: T2, cloned human 5-HT1A receptors (Homo sapiens, UniProt P08908); details: forskolin induced cAMP accumulation; cited from earlier work
T2 construct: expressed in transfected cells
T2 sequence (P08908 1-422): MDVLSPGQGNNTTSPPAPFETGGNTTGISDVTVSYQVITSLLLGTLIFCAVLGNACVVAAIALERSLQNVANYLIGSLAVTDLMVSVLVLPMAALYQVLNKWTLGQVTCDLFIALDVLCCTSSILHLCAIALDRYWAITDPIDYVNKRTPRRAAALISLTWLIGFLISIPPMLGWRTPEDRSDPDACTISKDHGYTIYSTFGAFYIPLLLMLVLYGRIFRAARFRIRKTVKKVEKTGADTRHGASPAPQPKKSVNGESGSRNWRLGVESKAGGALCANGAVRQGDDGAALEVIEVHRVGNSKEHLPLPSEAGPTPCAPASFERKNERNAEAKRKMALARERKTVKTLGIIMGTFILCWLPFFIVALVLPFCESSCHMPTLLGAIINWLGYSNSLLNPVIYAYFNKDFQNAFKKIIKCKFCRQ

[4] = tested on: MPTP-lesioned common marmosets; experiment: motor disability rating in MPTP-treated common marmosets; type: in vivo, Callithrix jacchus
Description: (§1) All experimental work was carried out in accordance with the Animals (Scientific Procedures Act) 1986, project license nr PPL 70/4986. Administration of MPTP: […] Research Biochemical International, UK) was dissolved in 0.9% sterile saline solution and administered by subcutaneous (sc) injection (Pearce, et al., De Novo Administration of Ropinirole and Bromocriptine Induces Less Dyskinesia than L-DOPA in the MPTP-treated Common Marmoset, Mov Dis, Mar, 13(2), 234-41, (1998)). To induce the full lesion, MPTP (2.0 mg/kg, sc) was administered once daily for 5 consecutive days. During MPTP-treatment and for the following six to eight weeks, animals were hand fed on a marmoset jelly diet until they had recovered sufficiently to feed themselves and their body weights had stabilised. All animals were determined responsive to L-DOPA administration prior to use. Testing commenced only when animals had recovered from the acute effects of MPTP treatment. In this study this was 70 days after commencement for MPTP treatment. Drugs: […] Doses are expressed as mg/kg free base. L-DOPA methyl ester (Sigma, UK) was dissolved in 10% sucrose in given in a volume of 2 ml/kg and administered by oral gavage. Carbidopa (Merck Sharp and Dohme, UK) was suspended in 10% sucrose in given in a volume of 2 ml/kg and administered directly into the mouth of the animal. Domperidone (Sigma, UK) was suspended in 10% sucrose in given in a volume of 2 ml/kg and administered directly into the mouth of the animal. […] Doses of L-DOPA were chosen to reflect a moderate and high dose of L-DOPA (7.5 and 12.5 mg/kg, po respectively). Procedure: […] A modified latin square design was employed with one week wash-out periods between treatments. Animals were assessed for locomotor activity and disability as described below. Rating of disability: The animals were monitored through a one-way mirror by experienced observers, blinded to treatment, and rated for the degree of motor dysfunction. […] Analysis and Statistics: […]

[5] = tested on: MPTP-lesioned common marmosets; details: po; previous study; cited from earlier work
[6] = tested on: dopamine D2/3 receptor; details: rat striatal slices; cited from earlier work
[7] = tested on: MPTP-lesioned common marmosets; experiment: locomotor activity in MPTP-lesioned common marmosets; type: in vivo, Callithrix jacchus; details: for hyperactivity (3 times normal activity in naive marmosets): alone or combined
Description: as §1, with “Assessment” for “Rating”, “locomotor activity: […] Each cage was equipped with 8 horizontally orientated infrared photocell emitters and their corresponding detectors arranged so as” for “disability: The animals were monitored through a one-way mirror by experienced observers, blinded”, “permit maximum assessment” for “treatment, and rated for the degree”, “movement.” for “motor dysfunction.”

[8] = molecular target: T3, human recombinant dopamine D3 receptors (Homo sapiens, UniProt P35462); details: cited from earlier work
T3 construct: expressed in transfected cells
T3 sequence (P35462 whole entry): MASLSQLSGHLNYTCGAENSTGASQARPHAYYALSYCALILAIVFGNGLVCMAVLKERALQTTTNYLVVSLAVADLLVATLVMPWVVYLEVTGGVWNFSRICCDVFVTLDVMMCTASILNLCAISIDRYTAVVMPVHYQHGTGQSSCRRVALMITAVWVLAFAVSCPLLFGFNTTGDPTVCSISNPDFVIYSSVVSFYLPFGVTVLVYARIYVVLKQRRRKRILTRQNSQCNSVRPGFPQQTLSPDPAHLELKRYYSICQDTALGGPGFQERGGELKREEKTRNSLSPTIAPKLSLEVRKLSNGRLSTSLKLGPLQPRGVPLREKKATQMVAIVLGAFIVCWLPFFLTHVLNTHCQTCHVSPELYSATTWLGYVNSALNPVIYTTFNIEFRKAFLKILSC

[9] = molecular target: T4, cloned human dopamine D2,L receptors (Homo sapiens, UniProt P14416); details: cited from earlier work
T4 construct: expressed in transfected cells
T4 sequence (P14416 whole entry): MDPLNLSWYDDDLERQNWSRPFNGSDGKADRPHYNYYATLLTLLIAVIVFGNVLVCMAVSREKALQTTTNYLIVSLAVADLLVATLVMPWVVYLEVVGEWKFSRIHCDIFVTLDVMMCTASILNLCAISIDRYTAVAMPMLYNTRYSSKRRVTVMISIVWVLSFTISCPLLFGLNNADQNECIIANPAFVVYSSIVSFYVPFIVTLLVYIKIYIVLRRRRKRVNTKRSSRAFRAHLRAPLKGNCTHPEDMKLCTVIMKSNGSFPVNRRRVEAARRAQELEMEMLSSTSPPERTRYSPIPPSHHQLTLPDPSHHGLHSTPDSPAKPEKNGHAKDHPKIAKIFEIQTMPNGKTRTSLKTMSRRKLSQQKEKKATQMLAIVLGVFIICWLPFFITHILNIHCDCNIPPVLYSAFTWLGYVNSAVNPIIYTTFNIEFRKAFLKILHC

[10] = L-DOPA 7.5 and 12.5 mg/kg po, SLV308 0.26 mg/kg po
[11] = SLV308 0.26 mg/kg po, L-DOPA 7.5 and 12.5 mg/kg po

With `C[N+]1([O-])CCN(c2cccc3[nH]c(=O)oc23)CC1` [N-oxide of SLV308] as the compound, how does the “conversion to SLV308 in vivo” value [1] read?
The value was “rapidly converted to SLV308”.

What does the source list for `CN1CCN(c2cccc3[nH]c(=O)oc23)CC1` [SLV308, 7-[4-methyl-1-piperazinyl]-2(3H)-benzoxazolone mono hydrochloride]?
pA2 [2]: 8.5; pEC50 [3]: 6.3; type of agonism at 5-HT1A [3]: full 5-HT1A receptor agonist; MPTP-induced akinesia and disability [4, 10]: reverse; onset of reversal of disability [4, 10]: reduced disability scores immediately after administration; median duration of activity (reversal of disability) ([4]; SLV308 0.26 mg/kg po alone): 390 min; total disability scores over the 7 hours after administration ([4]; SLV308 0.26 mg/kg po alone or in combination with L-DOPA 7.5 or 12.5 mg/kg, versus vehicle p<0.001): reduced; disability score at maximum improvement ([4]; SLV308 0.26 mg/kg po, maximum score 18): 3; dose of optimal effect on locomotor activity and disability scores [5]: 0.26 mg/kg; effect on forskolin stimulated accumulation of cAMP [6]: concentration-dependently attenuated; time of peak locomotor activity after treatment ([7]; SLV308 0.26 mg/kg po): 180 min; time to increase of locomotor activity after administration ([7]; SLV308 0.26 mg/kg po): ≤ 30 min; hyperactivity (3 times normal activity in naive marmosets) [7, 11]: hyperactivity was not observed; duration of locomotor activity ([7]; SLV308 0.26 mg/kg po, whole observation period): ≥ 7 h; pA2 ([8]; antagonism of dopamine induction of [35S]GTPγS binding): 9.0; pEC50 ([8]; induction of [35S]GTPγS binding): 9.2; induction of [35S]GTPγS binding ([8]; partial agonist): 67 % that of dopamine; pA2 ([9]; D2,L receptor antagonism): 8.4; efficacy on forskolin stimulated cAMP accumulation ([9]; partial agonist): 50%

What does the source list for `N[C@@H](Cc1ccc(O)c(O)c1)C(=O)O` [L-DOPA, 3,4-dihydroxyphenylalanine]?
duration of reversal of disability ([4]; L-DOPA 7.5 mg/kg po): 150 min; duration of reversal of disability ([4]; L-DOPA 12.5 mg/kg po): 180 min; time of peak reversal of disability after administration ([4]; L-DOPA 7.5 and 12.5 mg/kg po): 90 min; MPTP-induced akinesia and disability [4, 10]: reverse; onset of reversal of disability [4, 10]: immediate reversal of disability; disability score at peak reversal ([4]; L-DOPA 7.5 and 12.5 mg/kg po, maximum score 18): 2.5; duration of locomotor activity ([7]; L-DOPA 7.5 and 12.5 mg/kg po): 2.5 to 4 h; onset of locomotor activity increase ([7]; L-DOPA 7.5 and 12.5 mg/kg po): immediate increase in locomotor activity; time of peak locomotor activity after administration ([7]; L-DOPA 7.5 and 12.5 mg/kg po): 60 to 90 min; hyperactivity (3 times normal activity in naive marmosets) [7, 11]: produced periods of hyperactivity

For `CCN(CC)C(=O)N[C@H]1C[C@@H]2c3cccc4[nH]cc(c34)C[C@H]2N(C)C1` [terguride, reference compound], which pA2 [2] is on record?
The pA2 was 10.3.
